# Measurements as given in patent EP1611112B1, “ISOXAZOLE COMPOUNDS AS INHIBITORS OF HEAT SHOCK PROTEINS” (Vernalis (Cambridge) Limited, priority 2003, dated 2004).
# Counter-ions that a name gives are not always drawn.
# Molecular target: T1, yeast HSP90 (Saccharomyces cerevisiae, UniProt P02829)
# T1 construct: made in house; host or cells: E. coli
# Experiment: Malachite Green ATPase assay
# Type: biochemical
# Settings: activity range
# From the text: The intrinsic ATPase activity of HSP90 may be measured using yeast HSP90 as a model system. The assay, based on the use of malachite green for the measurement of inorganic phosphate, was used to test the HSP90 inhibitory activity of some of the compounds of the Examples herein.
# Malachite Green ATPase Assay
# Chemicals are of the highest purity commercially available and all aqueous solutions are made up in AR water. Because of the need to minimise contamination with inorganic phosphate, precautions should be taken with solutions and apparatus used in the assays. Glassware and pH meters are rinsed with double distilled or deionised water before use and, wherever possible, plastic ware should be used. Gloves are worn for all procedures. • (1) Greiner 384-well (Greiner 781101) or Costar 384-well flat-bottomed polystyrene multiwell plates (VWR). • (2) Assay buffer of (a) 100mM Tris-HCI, pH 7.4, (b) 150mM KCI, (c) 6mM MgCl2. Stored at room temperature. • (3) 0.0812% (w/v) malachite green (M 9636, Sigma Aldrich Ltd., Poole, UK). Stored at room temperature. • (4) 2.32% (w/v) polyvinyl alcohol USP (P 1097, Sigma Aldrich Ltd, Poole, UK) in boiling water (see Comment 1), allowed to cool, and stored at room temperature. • (5) 5.72% (w/v) ammonium molybdate in 6 M hydrochloric acid. Stored at room temperature. • (6) 34% (w/v) sodium citrate. Stored at room temperature. • (7) 100mM ATP, disodium salt, special quality (47699, Sigma Aldrich). Stored at -20°C. • (8) E. coli expressed yeast HSP90 protein, purified >95% (see, e.g., Panaretou et al., 1998) and stored in 50uL aliquots at -80°C.
# • 1. Dilute test compounds to 500µM in AR water (DMSO concentration will be 2.5%). Transfer 2.5µl of these compounds directly from the daughter plate to the assay plate, giving a final assay concentration of 100µM. […] Column 1 in the assay plate contains no compound, as a negative control. An additional row with no compound is also used as a background. • 2. Prepare ATP by diluting 100mM stock to 925µM with assay buffer, and aliquot 5µl of diluted ATP to each well including controls (final assay concentration 370µM). • 3. Add 5µl of buffer to background row. • 4. Dilute enzyme preparation to 1.05µM with assay buffer, and aliquot 5µl into each compound well and to the negative control column. • 5. Collect the reagents to the bottom of the well, cover plate with plate seal and incubate overnight at 37degC. • 6. First thing in the morning prepare the Malachite Green Reagent. Add 2parts of Malachite Green Solution, 1 part of Polyvinyl Alcohol Solution, 1 part of Ammonium Molybdate Solution, and 2 parts of AR water. • 7. Invert to mix, and leave for approximately 1 hour until the colour turns from brown to golden yellow. • 8. Add 40µl of Malachite Green Reagent to each well, allow 5 mins for colour to develop. • 9. Add 5µl of Sodium Citrate Reagent to each well (see comment 2) • 10. Re-cover with plate seal and shake on plate shaker for at least 15 mins. • 11. Measure Absorbance at 620nm using a suitable plate reader (e.g. Victor, Perkin Elmer Life Sciences, Milton Keynes, UK). Under these conditions, the control absorbance is 0.9 to 1.4, and the background is 0.2-0.35 giving a signal to noise ratio of -12. The Z' factor calculated from data obtained using these conditions is between 0.6 and 0.9.
# • (1) The polyvinyl alcohol dissolves in boiling water with difficulty and stirring for 2-3 h is required. • (2) The time interval between addition of the malachite green reagent and the sodium citrate should be kept as short as possible in order to reduce the non-enzymatic hydrolysis of ATP. Once the sodium citrate is added, the colour is stable for up to 4 h at room temperature. • (3) Compounds can be added to the assay plates using a Biomek FX Robot (Beckman Coulter). […]
# T1 sequence (P02829 whole entry): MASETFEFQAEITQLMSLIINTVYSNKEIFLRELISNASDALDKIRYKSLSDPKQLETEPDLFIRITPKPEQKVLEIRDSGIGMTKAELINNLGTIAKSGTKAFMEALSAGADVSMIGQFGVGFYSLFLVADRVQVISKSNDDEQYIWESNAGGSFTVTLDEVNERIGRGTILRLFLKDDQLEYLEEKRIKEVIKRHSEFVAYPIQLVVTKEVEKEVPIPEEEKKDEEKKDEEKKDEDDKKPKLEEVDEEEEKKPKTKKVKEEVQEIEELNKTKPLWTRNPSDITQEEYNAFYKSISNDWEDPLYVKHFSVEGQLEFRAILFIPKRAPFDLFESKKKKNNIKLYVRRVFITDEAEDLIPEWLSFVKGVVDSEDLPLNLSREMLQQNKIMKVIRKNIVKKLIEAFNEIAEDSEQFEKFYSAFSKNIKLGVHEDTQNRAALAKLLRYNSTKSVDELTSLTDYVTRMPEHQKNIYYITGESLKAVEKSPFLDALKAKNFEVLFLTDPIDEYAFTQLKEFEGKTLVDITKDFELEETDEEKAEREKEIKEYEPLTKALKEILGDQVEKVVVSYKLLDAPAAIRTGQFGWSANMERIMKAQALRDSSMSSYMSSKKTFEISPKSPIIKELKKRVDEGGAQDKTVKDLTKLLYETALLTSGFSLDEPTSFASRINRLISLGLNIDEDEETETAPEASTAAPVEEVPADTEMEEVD
row,Compound,IC50 [µM]
1,COc1ccc(-c2c(C)noc2-c2cc(C(=O)Nc3ccccc3OC)c(O)cc2O)cc1 [Example 19],< 50
2,COc1ccc(-c2c(C)noc2-c2cc(C(OC)c3ccccc3)c(O)cc2O)cc1 (centres unmarked) [Example 20],< 50
3,Oc1cc(O)c(-c2oncc2-c2ccc(Br)cc2)cc1Cl [Example 12a],< 50
4,Cc1cc(O)cc(O)c1-c1oncc1-c1csc(-c2ccccc2)n1 [Example 12c],< 50
5,COc1ccc(-c2c(C)noc2-c2cc(C=O)c(O)cc2O)cc1 [Example 17],> 50
6,Cc1noc(-c2cc(Cl)c(O)cc2O)c1-c1ccccc1 [Example 10],< 50

# Molecular target: T2, human full-length HSP90 (Homo sapiens, UniProt P08238)
# T2 construct: E. coli expressed human full-length HSP90 protein; made in house; host or cells: E. coli
# T2 sequence (P08238 whole entry): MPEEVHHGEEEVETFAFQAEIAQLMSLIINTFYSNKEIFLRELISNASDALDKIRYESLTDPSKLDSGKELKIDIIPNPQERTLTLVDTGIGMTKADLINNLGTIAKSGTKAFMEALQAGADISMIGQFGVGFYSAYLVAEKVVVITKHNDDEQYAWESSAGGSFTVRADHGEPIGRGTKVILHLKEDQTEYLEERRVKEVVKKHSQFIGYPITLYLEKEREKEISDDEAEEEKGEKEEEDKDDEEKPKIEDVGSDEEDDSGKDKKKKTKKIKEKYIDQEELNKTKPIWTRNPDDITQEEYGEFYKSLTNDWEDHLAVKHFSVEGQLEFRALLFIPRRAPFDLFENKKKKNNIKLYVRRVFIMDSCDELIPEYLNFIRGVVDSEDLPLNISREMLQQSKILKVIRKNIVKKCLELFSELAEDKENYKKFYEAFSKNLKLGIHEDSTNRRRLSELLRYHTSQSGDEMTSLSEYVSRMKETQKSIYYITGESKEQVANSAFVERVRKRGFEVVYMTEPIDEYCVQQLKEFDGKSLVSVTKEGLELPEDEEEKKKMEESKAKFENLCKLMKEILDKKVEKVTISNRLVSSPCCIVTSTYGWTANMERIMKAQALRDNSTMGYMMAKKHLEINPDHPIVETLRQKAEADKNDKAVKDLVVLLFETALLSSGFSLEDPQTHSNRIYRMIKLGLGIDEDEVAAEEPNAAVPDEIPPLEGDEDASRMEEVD
# Experiment: Fluorescence Polarisation Assay (displacement of fluorescein-labelled probe RBT0045864-FAM)
# Type: binding
# Settings: Fluorescence Polarisation Assay, activity range
# From the text: A Fluorescence Polarization_assay was also employed for the evaluation of some of the compounds of the Examples:
# Fluorescence polarization {also known as fluorescence anisotropy} measures the rotation of a fluorescing species in solution, where the larger molecule the more polarized the fluorescence emission.
# When the fluorophore is excited with polarized light, the emitted light is also polarized. The molecular size is proportional to the polarization of the fluorescence emission.
# Test compound is added to the assay plate, left to equilibrate and the anisotropy measured again. Any change in anisotropy is due to competitive binding of compound to HSP90, thereby releasing probe.
# Stored at room temperature. • 3) BSA (bovine serum albumen) 10 mg/ml (New England Biolabs # B9001S) • 4) 20 mM probe in 100 % DMSO stock concentration. Stored in the dark at RT. Working concentration is 200 nM diluted in AR water and stored at 4 °C.
# 1) Add 100µl 1x buffer to wells 11A and 12A (=FP BLNK) 2) Prepare assay mix - all reagents are kept on ice with a lid on the bucket as the probe is light-sensitive.
# This gives 2.5 mM {50x} stock cpd - assuming cpds 20 mM. • 4) Repeat for wells A2 to A10. Control in columns 11 and 12. • 5) Transfer 5 µl from row A to row B- not column 12. Mix well. • 6) Transfer 5 µl from row B to row C. […] Add 2 µl of 100mM standard cpd to wells B12 - H12 {is positive control } • 13)The Z' factor is calculated from zero controls and positive wells.
row,IC50 [µM],Compound
1,< 10,CCNC(=O)c1noc(-c2cc(Cl)c(O)cc2O)c1-c1ccc(F)c(CN2CCOCC2)c1 [Example 64]
2,< 10,CCNC(=O)c1noc(-c2cc(Cl)c(O)cc2O)c1-c1ccc(OCCN(CC)CC)cc1 [Example 41q]
3,< 10,CCNC(=O)c1noc(-c2cc(Cl)c(O)cc2O)c1-c1ccc2ncccc2c1 [Example 33]
4,< 10,"COc1ccc(-c2c(-c3cc(Br)c(O)cc3O)noc2C)cc1 [Example 76, 4-Bromo-6-[4-(4-methoxy-phenyl)-5-methyl-isoxazol-3-yl]-benzene-1,3-diol]"
5,< 10,CCNC(=O)c1noc(-c2cc(-c3ccc(F)cc3)c(O)cc2O)c1-c1ccc(CN2CCOCC2)cc1 [Example 73]
6,< 10,CCNC(=O)c1noc(-c2cc(Cl)c(O)cc2O)c1-c1ccc(CN(C)C)cc1 [Example 59]
7,< 10,CCNC(=O)c1noc(-c2cc(Cl)c(O)cc2O)c1-c1ccccc1CN1CCN(C)CC1 [Example 41s]
8,< 10,CCNC(=O)c1noc(-c2cc(-c3ccc(F)cc3)c(O)cc2O)c1-c1ccc(F)cc1 [Example 71]
9,< 10,CCNC(=O)c1noc(-c2cc(Cl)c(O)cc2O)c1-c1ccc(CN2CCOCC2)c(F)c1 [Example 41g]
10,< 10,"CCNC(=O)c1noc(-c2cc(CCc3ccccc3)c(O)cc2O)c1-c1ccc(CN2CCOCC2)cc1 [Example 65, 5-(2,4-dihydroxy-5-phenethyl-phenyl)-4-(4-morpholin-4-ylmethylphenyl)-isoxazole-3-carboxylic acid ethylamide hydrochloride]"
11,< 10,"CCNC(=O)c1noc(-c2cc(Cl)c(O)cc2O)c1-c1ccc(OC)cc1 [Example 25, 5-(5-chloro-2,4-dihydroxyphenyl)-4-(4-methoxy-phenyl)-isoxazole-3-carboxylic acid ethylamide]"
12,< 10,CCNC(=O)c1noc(-c2cc(Cl)c(O)cc2O)c1-c1ccc(CN2CCC(CO)CC2)cc1 [Example 50]
13,> 10,Cc1nc(-c2c(-c3ccc(O)cc3O)noc2C(F)(F)F)cs1 [Example 76A]

row,Compound,IC50 [µM]
1,CCNC(=O)c1noc(-c2cc(CCc3cccc(F)c3)c(O)cc2O)c1-c1ccc(CN2CCOCC2)cc1 [Example 75],< 10
2,"Cc1noc(-c2cc(Cl)c(O)cc2O)c1-c1cccc(CN2CCC(C(N)=O)CC2)c1 [Example 29, 1-{3-[5-(5-Chloro-2,4-dihydroxy-phenyl)-3-methyl-isoxazol-4-yl]-benzyl}-piperidine-4-carboxylic acid amide]",< 10
3,"CCNC(=O)c1noc(-c2cc(C(C)(C)C)c(O)cc2O)c1-c1ccc(CN2CCOCC2)cc1 [Example 77, 5-(5-tert-Butyl-2,4-dihydroxy-phenyl)-4-(4-morpholin-4-ylmethyl-phenyl)-isoxazole-3-carboxylic acid ethylamide]",< 10
4,CCNC(=O)c1noc(-c2cc(CCc3ccc(F)cc3)c(O)cc2O)c1-c1ccc(CN2CCOCC2)cc1 [Example 70],< 10

# Same assay, conditions: table names no assay; parent examples tested in fluorescence polarization assay
row,Compound,IC50 [µM]
1,CCNC(=O)c1noc(-c2cc(-c3ccccc3)c(O)cc2O)c1-c1ccc(CN2CCCCC2)cc1 [Example 75b],< 10
2,CCNC(=O)c1noc(-c2cc(-c3ccccc3C)c(O)cc2O)c1-c1ccc(CN(CC)CC)cc1 [Example 75t],< 10
3,CCNC(=O)c1noc(-c2cc(CCc3cccc(F)c3)c(O)cc2O)c1-c1ccc(CN(CC)CC)cc1 [Example 75h],< 10
4,CCNC(=O)c1noc(-c2cc(-c3ccccc3F)c(O)cc2O)c1-c1ccc(CN2CCOCC2)cc1 [Example 75f],< 10

# More lines, now with the values ahead:
row,IC50 [µM],Compound
1,< 10,CCNC(=O)c1onc(-c2cc(Cl)c(O)cc2O)c1-c1ccc(CN2CCOCC2)cc1 [Example 76C]
2,< 10,CCN(CC)Cc1ccc(-c2c(C(=O)NC(C)C)noc2-c2cc(C(C)C)c(O)cc2O)cc1 [Example 78u]
3,< 10,CCNC(=O)c1noc(-c2cc(-c3ccccc3)c(O)cc2O)c1-c1ccc(CN(CC)CC)cc1 [Example 75p]
4,< 10,CCNC(=O)c1noc(-c2cc(C(C)C)c(O)cc2O)c1-c1ccc(CNC(C)C)cc1 [Example 78e]
5,< 10,CCNC(=O)c1noc(-c2cc(C(C)C)c(O)cc2O)c1-c1ccc(CN2CCN(C)CC2)cc1 [Example 78c]
6,< 10,CCNC(=O)c1onc(-c2cc(Cl)c(O)cc2O)c1-c1ccc(OC)cc1 [Example 76B]
7,< 10,CCNC(=O)c1noc(-c2cc(C(C)C)c(O)cc2O)c1-c1ccc(CNCCOC)cc1 [Example 78m]
8,< 10,CCNC(=O)c1noc(-c2cc(C(C)(C)C)c(O)cc2O)c1-c1ccc(CN(CC)CC)cc1 [Example 77b]
9,< 10,CCNC(=O)c1noc(-c2cc(C(C)C)c(O)cc2O)c1-c1ccc(CNC(C)(C)C)cc1 [Example 78l]
10,< 10,CCNC(=O)c1noc(-c2cc(C(C)(C)C)c(O)cc2O)c1-c1ccc(OC)cc1 [Example 77f]
11,< 10,CCNC(=O)CNCc1ccc(-c2c(C(=O)NCC)noc2-c2cc(C(C)C)c(O)cc2O)cc1 [Example 78ah]
12,< 10,CC(C)NC(=O)c1noc(-c2cc(C(C)C)c(O)cc2O)c1-c1ccc(CNC2CCCCC2)cc1 [Example 78w]
13,< 10,CCNC(=O)c1noc(-c2cc(CCc3cccc(C)c3)c(O)cc2O)c1-c1ccc(CN2CCOCC2)cc1 [Example 75c]
14,< 10,CC(C)NC(=O)c1noc(-c2cc(C(C)C)c(O)cc2O)c1-c1ccc(CN2CCOCC2)cc1 [Example 78s]
15,< 10,CCNC(=O)c1noc(-c2cc(C(C)C)c(O)cc2O)c1-c1ccc(CN2CCC(N)CC2)cc1 [Example 78af]
16,< 10,CCNC(=O)c1noc(-c2cc(C(C)(C)C)c(O)cc2O)c1-c1ccc(F)cc1 [Example 77e]
17,< 10,CCNC(=O)c1noc(-c2cc(C(C)C)c(O)cc2O)c1-c1ccc(CN(CC)CC)cc1 [Example 78b]
